Assay results from patent publication US20230257396A1, “MACROCYCLES AND THEIR USE” (BLOSSOMHILL THERAPEUTICS, INC., priority 2020, published 2023).

How the values were obtained:
Assay in all cases: KINOMEscan kinase binding assay (Eurofins/DiscoveRx), % Ctrl
kinases [1] = target: T1, kinases (Homo sapiens, UniProt P00533, L861Q); settings: 1 μM; EGFR(L861Q)
T1 construct: purchased Eurofins/DiscoveRx; host or cells: E. coli BL21-derived host (T7 phage display) for most kinases; HEK-293 for the rest
Experimental: (§1) Kinase binding assays were performed at Eurofins/DiscoveRx using the general KINOMEscan Protocol (Fabian, M. A. et al., “A small molecule-kinase interaction map for clinical kinase inhibitors,” Nat. Biotechnol. 2005, 23(3):329-36). For most assays, kinase-tagged T7 phage strains were prepared in an E. coli host derived from the BL21 strain. E. coli were grown to log-phase and infected with T7 phage and incubated with shaking at 32° C. until lysis. The lysates were centrifuged and filtered to remove cell debris. The remaining kinases were produced in HEK-293 cells and subsequently tagged with DNA for qPCR detection. Streptavidin-coated magnetic beads were treated with biotinylated small molecule ligands for 30 minutes at room temperature to generate affinity resins for kinase assays. The liganded beads were blocked with excess biotin and washed with blocking buffer (SeaBlock (Pierce), 1% BSA, 0.05% Tween 20, 1 mM DTT) to remove unbound ligand and to reduce nonspecific binding. Binding reactions were assembled by combining kinases, liganded affinity beads, and test compounds in 1×binding buffer (20% SeaBlock, 0.17×PBS, 0.05% Tween 20, 6 mM DTT). All reactions were performed in polystyrene 96-well plates in a final volume of 0.135 mL. The assay plates were incubated at room temperature with shaking for 1 hour and the affinity beads were washed with washbuffer (1×PBS, 0.05% Tween 20). The beads were then re-suspended in elution buffer (1× PBS, 0.05% Tween 20, 0.5 μM non-biotinylated affinity ligand) and incubated at room temperature with shaking for 30 minutes. The kinase concentration in the eluates was measured by qPCR. Results for compounds tested in this assay at a given concentration are reported as “% Ctrl”, where lower numbers indicate stronger binding in the matrix.
(§2) (test compound signal-positive control signal)/(negative control signal-positive control signal) X100

kinases [2] = target: T2, kinases (Homo sapiens, UniProt P10721, A829P); settings: 1 μM; KIT(A829P)
T2 construct: purchased Eurofins/DiscoveRx; host or cells: E. coli BL21-derived host (T7 phage display) for most kinases; HEK-293 for the rest
T2 sequence (P10721 26-976 A829P): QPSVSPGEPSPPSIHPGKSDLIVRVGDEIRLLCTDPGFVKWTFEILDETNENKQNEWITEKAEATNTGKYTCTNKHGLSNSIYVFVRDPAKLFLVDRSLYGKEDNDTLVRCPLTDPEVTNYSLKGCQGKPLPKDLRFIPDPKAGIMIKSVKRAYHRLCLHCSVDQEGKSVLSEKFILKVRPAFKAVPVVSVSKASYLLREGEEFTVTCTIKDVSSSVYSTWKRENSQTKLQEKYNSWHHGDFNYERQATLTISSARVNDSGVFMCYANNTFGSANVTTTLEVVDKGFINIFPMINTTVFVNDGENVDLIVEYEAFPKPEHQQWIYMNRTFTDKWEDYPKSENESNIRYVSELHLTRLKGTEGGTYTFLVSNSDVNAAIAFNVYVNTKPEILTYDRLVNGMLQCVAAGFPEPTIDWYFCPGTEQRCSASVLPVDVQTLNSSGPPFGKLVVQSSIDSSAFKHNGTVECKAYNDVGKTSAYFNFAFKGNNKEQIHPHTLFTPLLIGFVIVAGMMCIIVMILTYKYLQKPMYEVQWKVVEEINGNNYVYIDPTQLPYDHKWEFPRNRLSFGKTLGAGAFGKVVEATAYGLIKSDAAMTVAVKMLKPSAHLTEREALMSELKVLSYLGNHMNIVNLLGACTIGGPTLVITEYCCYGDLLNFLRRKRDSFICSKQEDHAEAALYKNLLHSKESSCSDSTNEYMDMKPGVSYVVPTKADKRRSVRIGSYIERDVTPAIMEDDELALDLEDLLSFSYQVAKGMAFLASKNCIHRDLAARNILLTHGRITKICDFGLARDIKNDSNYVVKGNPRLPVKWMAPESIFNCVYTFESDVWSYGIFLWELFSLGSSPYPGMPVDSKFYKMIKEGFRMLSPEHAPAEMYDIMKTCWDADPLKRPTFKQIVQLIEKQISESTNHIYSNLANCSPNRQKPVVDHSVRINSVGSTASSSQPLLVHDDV
Experimental: as §1, §2

kinases [3] = target: T3, kinases (Homo sapiens, UniProt P00533, T790M); settings: 1 μM; EGFR(T790M)
T3 construct: purchased Eurofins/DiscoveRx; host or cells: E. coli BL21-derived host (T7 phage display) for most kinases; HEK-293 for the rest
Experimental: as §1, §2

kinases [4] = target: T4, kinases (Homo sapiens, UniProt P00533); settings: 1 μM; EGFR
T4 construct: purchased Eurofins/DiscoveRx; host or cells: E. coli BL21-derived host (T7 phage display) for most kinases; HEK-293 for the rest
Experimental: as §1, §2

kinases [5] = target: T5, kinases (Homo sapiens, UniProt P07949, V804L); settings: 1 μM; RET(V804L)
T5 construct: purchased Eurofins/DiscoveRx; host or cells: E. coli BL21-derived host (T7 phage display) for most kinases; HEK-293 for the rest
T5 sequence (P07949 29-1114 V804L): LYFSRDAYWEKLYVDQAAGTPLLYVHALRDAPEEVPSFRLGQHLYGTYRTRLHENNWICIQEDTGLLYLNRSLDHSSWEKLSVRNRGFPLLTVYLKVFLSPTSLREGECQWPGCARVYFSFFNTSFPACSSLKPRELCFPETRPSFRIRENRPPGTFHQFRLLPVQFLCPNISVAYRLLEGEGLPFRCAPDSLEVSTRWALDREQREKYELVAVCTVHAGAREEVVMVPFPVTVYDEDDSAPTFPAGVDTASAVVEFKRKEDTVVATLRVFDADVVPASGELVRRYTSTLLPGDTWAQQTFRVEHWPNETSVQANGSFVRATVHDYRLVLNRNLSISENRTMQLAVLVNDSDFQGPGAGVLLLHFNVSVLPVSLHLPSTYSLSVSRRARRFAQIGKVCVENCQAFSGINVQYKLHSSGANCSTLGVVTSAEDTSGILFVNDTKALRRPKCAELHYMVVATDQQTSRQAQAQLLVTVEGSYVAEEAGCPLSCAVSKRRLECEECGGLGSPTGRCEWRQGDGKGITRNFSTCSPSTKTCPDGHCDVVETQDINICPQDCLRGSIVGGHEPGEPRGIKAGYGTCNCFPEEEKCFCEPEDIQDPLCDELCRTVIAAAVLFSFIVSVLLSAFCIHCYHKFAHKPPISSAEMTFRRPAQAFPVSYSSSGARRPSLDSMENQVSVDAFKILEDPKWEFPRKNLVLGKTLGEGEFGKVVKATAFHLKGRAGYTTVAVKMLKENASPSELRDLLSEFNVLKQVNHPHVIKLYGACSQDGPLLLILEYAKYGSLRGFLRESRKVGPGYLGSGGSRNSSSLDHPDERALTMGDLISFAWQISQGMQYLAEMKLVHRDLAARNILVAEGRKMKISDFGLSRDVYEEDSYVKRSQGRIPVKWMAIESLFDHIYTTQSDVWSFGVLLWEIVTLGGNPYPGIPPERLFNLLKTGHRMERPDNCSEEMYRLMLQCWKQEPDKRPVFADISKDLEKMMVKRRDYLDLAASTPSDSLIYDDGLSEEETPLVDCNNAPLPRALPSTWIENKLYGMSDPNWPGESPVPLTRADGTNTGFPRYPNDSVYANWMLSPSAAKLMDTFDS
Experimental: as §1, §2

kinases [6] = target: T6, kinases (Homo sapiens, UniProt P36888, K663Q); settings: 1 μM; FLT3(K663Q)
T6 construct: purchased Eurofins/DiscoveRx; host or cells: E. coli BL21-derived host (T7 phage display) for most kinases; HEK-293 for the rest
T6 sequence (P36888 27-993 K663Q): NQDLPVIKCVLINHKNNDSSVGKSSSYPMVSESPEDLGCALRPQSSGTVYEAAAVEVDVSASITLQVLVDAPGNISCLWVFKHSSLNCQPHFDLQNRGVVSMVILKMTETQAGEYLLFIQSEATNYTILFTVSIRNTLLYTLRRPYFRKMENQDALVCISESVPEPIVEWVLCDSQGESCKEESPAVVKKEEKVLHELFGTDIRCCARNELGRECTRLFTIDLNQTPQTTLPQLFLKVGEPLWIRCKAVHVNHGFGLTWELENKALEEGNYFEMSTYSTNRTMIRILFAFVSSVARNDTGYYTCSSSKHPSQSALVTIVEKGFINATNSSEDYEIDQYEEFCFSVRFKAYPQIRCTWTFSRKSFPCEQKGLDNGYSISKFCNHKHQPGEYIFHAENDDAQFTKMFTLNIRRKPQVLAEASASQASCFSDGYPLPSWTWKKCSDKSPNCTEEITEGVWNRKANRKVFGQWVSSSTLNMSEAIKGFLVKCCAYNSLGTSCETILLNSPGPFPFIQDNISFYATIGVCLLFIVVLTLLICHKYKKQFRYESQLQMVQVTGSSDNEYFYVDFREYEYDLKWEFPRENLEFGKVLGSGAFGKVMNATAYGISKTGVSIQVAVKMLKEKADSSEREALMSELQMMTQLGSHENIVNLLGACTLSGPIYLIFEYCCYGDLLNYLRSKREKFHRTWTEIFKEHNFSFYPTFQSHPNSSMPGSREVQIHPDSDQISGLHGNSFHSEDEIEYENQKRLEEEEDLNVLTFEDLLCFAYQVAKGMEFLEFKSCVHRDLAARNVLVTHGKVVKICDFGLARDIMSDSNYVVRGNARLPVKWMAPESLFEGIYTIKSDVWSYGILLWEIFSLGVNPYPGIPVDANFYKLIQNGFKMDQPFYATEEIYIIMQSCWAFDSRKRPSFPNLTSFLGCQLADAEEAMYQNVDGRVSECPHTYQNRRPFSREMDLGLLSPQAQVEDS
Experimental: as §1, §2

kinases [7] = target: T7, kinases (Homo sapiens, UniProt P00519, M351T); settings: 1 μM; ABL1(M351T)-phosphorylated
T7 construct: purchased Eurofins/DiscoveRx; host or cells: E. coli BL21-derived host (T7 phage display) for most kinases; HEK-293 for the rest
Experimental: as §1, §2

kinases [8] = settings: 1 μM
Experimental: as §1, §2

kinases [9] = target: T8, kinases (Homo sapiens, UniProt P10721, D816H); settings: 1 μM; KIT(D816H)
T8 construct: purchased Eurofins/DiscoveRx; host or cells: E. coli BL21-derived host (T7 phage display) for most kinases; HEK-293 for the rest
T8 sequence (P10721 26-976 D816H): as the sequence (P10721 26-976 A829P) above, with D791H, P804A counted along it
Experimental: as §1, §2

kinases [10] = target: T9, kinases (Homo sapiens, UniProt P07949); settings: 1 μM; RET
T9 construct: purchased Eurofins/DiscoveRx; host or cells: E. coli BL21-derived host (T7 phage display) for most kinases; HEK-293 for the rest
T9 sequence (P07949 29-1114): as the sequence (P07949 29-1114 V804L) above, with L776V counted along it
Experimental: as §1, §2

kinases [11] = target: T10, kinases (Homo sapiens, UniProt P00533, DEL746-750); settings: 1 μM; EGFR(E746-A750del)
T10 construct: purchased Eurofins/DiscoveRx; host or cells: E. coli BL21-derived host (T7 phage display) for most kinases; HEK-293 for the rest
Experimental: as §1, §2

Structure (SMILES) | % Ctrl, EGFR(L861Q) (kinases [1]) [% Ctrl] | % Ctrl, KIT(A829P) (kinases [2]) [% Ctrl] | % Ctrl, EGFR(T790M) (kinases [3]) [% Ctrl] | % Ctrl, EGFR (kinases [4]) [% Ctrl] | % Ctrl, RET(V804L) (kinases [5]) [% Ctrl] | % Ctrl, FLT3(K663Q) (kinases [6]) [% Ctrl] | % Ctrl, ABL1(M351T)-phosphorylated (kinases [7]) [% Ctrl] | % Ctrl, EGFR(L747-E749del, A750P) (kinases [8]) [% Ctrl] | % Ctrl, EGFR(L747-S752del, P753S) (kinases [8]) [% Ctrl] | % Ctrl, EGFR(L747-T751del, Sins) (kinases [8]) [% Ctrl] | % Ctrl, FLT3(ITD) (kinases [8]) [% Ctrl] | % Ctrl, FLT3(ITD, D835V) (kinases [8]) [% Ctrl] | % Ctrl, FLT3(ITD, F691L) (kinases [8]) [% Ctrl] | % Ctrl, KIT(D816H) (kinases [9]) [% Ctrl] | % Ctrl, RET (kinases [10]) [% Ctrl] | % Ctrl, EGFR(E746-A750del) (kinases [11]) [% Ctrl]
Cc1cc2c([nH]1)/C=C1\C(=O)Nc3ccc(cc31)-c1c(C)n[nH]c1CNCCN(C)C2=O [Ex. 127, [3a(4)Z]-6,9,16-trimethyl-9,10,11,12,13,14-hexahydro-1,17-(ethanediylidene)pyrazolo[4,3-m]dipyrrolo[3,2-f:3′,4′-i][1,4]diazacyclopentadecine-3,8(2H,5H)-dione] | 73 | 60 | 9.2 | 42 | 0.55 | 5.3 | 0.2 | 26 | 40 | 43 | 2.2 | 0 | 6.2 | 60 | 2 | 13
Cc1cc2c([nH]1)/C=C1\C(=O)Nc3ccc(cc31)-c1c(noc1C)COCCN(C)C2=O [Ex. 128, [3a(4)Z]-6,9,16-trimethyl-1,11-dihydro-2H,13H-1,17-(ethanediylidene)[1,4]oxazolo[4,3-m]dipyrrolo[3,2-f:3′,4′-i][1,4]oxazacyclopentadecine-3,8(5H,9H)-dione] | 100 | 86 | 75 | 91 | 56 | 77 | 39 | 85 | 93 | 94 | 43 | 5.8 | 10 | 87 | 83 | 86
Cc1cc2c([nH]1)/C=C1\C(=O)Nc3ccc(cc31)OCCOCCNC2=O [Ex. 129, [16a(17)Z]-2-methyl-6,7,9,10-tetrahydro-1H-12,14-(ethanediylidene)dipyrrolo[3,2-i:3′,4′-l][1,4,7]dioxazacyclopentadecine-4,16(5H,15H)-dione] | 81 | 100 | 100 | 98 | 96 | 100 | 83 | 88 | 98 | 85 | 32 | 4.3 | 40 | 96 | 100 | 100
Cc1cc2c([nH]1)/C=C1\C(=O)Nc3cc(Cl)c(cc31)OCCOCCN(C)C2=O [Ex. 131, [16a(17)Z]-19-chloro-2,5-dimethyl-6,7,9,10-tetrahydro-1H-12,14-(ethanediylidene)dipyrrolo[3,2-i:3′,4′-l][1,4,7]dioxazacyclopentadecine-4,16(5H,15H)-dione] | 78 | 4 | 61 | 52 | 0 | 7.4 | 0.2 | 31 | 50 | 59 | 0.85 | 0 | 0.6 | 6.2 | 0 | 11

Next, values leading:

% Ctrl, EGFR(L861Q) (kinases [1]) [% Ctrl] | % Ctrl, KIT(A829P) (kinases [2]) [% Ctrl] | % Ctrl, EGFR(T790M) (kinases [3]) [% Ctrl] | % Ctrl, EGFR (kinases [4]) [% Ctrl] | % Ctrl, RET(V804L) (kinases [5]) [% Ctrl] | % Ctrl, FLT3(K663Q) (kinases [6]) [% Ctrl] | % Ctrl, ABL1(M351T)-phosphorylated (kinases [7]) [% Ctrl] | % Ctrl, EGFR(L747-E749del, A750P) (kinases [8]) [% Ctrl] | % Ctrl, EGFR(L747-S752del, P753S) (kinases [8]) [% Ctrl] | % Ctrl, EGFR(L747-T751del, Sins) (kinases [8]) [% Ctrl] | % Ctrl, FLT3(ITD) (kinases [8]) [% Ctrl] | % Ctrl, FLT3(ITD, D835V) (kinases [8]) [% Ctrl] | % Ctrl, FLT3(ITD, F691L) (kinases [8]) [% Ctrl] | % Ctrl, KIT(D816H) (kinases [9]) [% Ctrl] | % Ctrl, RET (kinases [10]) [% Ctrl] | % Ctrl, EGFR(E746-A750del) (kinases [11]) [% Ctrl] | Structure (SMILES)
77 | 2.6 | 11 | 61 | 0 | 1.4 | 0.1 | 22 | 48 | 54 | 0 | 0 | 0 | 0.65 | 0 | 20 | Cc1cc2c([nH]1)/C=C1\C(=O)Nc3ccc(cc31)-c1cnn(C)c1CNCCN(C)C2=O [Ex. 125, [3a(4)Z]-6,9,14-trimethyl-9,10,11,12,13,14-hexahydro-1,17-(ethanediylidene)pyrazolo[4,3-m]dipyrrolo[3,2-f:3′,4′-i][1,4]diazacyclopentadecine-3,8(2H,5H)-dione]
50 | 0 | 1.6 | 23 | 0 | 4.2 | 0.05 | 1.8 | 14 | 27 | 0.4 | 0 | 2.5 | 0 | 0 | 3.9 | Cc1cc2c([nH]1)/C=C1\C(=O)Nc3ccc(cc31)-c1cnn(C)c1CN(C)CCN(C)C2=O [Ex. 126, [3a(4)Z]-6,9,12,14-tetramethyl-9,10,11,12,13,14-hexahydro-1,17-(ethanediylidene)pyrazolo[4,3-m]dipyrrolo[3,2-f:3′,4′-i][1,4]diazacyclopentadecine-3,8(2H,5H)-dione]
